{
  "source": "patent US10988458B2",
  "about": "“Apoptosis signal-regulating kinase 1 inhibitors and methods of use thereof” (Enanta Pharmaceuticals, Inc., priority 2017, dated 2021)",
  "biological_target": "ASK1 kinase (Homo sapiens (Human), UniProt Q99683)",
  "sequence (Q99683 whole entry)": "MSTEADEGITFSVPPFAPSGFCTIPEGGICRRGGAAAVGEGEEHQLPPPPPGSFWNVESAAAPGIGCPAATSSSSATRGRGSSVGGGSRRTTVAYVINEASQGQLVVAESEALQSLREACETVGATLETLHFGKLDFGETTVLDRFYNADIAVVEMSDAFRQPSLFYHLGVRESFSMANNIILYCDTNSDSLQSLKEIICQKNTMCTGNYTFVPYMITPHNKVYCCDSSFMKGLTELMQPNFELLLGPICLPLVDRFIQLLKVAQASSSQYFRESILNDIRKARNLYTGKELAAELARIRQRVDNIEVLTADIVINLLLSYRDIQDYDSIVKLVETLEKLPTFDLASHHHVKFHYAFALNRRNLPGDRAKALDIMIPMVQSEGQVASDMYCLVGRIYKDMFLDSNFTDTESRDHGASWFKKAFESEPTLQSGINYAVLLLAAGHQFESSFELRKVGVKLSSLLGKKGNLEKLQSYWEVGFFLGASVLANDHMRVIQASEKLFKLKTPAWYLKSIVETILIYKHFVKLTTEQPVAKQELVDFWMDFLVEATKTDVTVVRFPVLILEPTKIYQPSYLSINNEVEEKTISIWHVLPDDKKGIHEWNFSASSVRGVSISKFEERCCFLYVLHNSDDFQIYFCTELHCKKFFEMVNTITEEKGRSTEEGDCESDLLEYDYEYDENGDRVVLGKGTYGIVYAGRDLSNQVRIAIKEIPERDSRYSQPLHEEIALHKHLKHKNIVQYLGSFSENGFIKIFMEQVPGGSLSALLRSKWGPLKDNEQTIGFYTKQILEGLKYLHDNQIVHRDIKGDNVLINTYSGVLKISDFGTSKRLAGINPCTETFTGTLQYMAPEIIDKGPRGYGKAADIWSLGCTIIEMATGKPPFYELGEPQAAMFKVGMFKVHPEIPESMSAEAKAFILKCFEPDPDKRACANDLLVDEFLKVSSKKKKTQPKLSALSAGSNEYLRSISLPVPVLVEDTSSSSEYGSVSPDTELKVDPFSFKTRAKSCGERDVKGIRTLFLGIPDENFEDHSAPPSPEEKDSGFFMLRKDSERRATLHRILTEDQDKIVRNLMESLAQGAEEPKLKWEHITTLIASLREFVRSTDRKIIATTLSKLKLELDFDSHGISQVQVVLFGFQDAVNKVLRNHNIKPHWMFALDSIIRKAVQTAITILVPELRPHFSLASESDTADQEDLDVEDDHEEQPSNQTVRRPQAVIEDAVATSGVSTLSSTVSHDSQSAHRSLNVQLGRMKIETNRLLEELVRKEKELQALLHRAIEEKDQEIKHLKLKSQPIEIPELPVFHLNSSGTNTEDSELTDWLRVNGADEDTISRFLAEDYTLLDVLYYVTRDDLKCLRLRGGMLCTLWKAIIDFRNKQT",
  "test": "ASK1 kinase inhibition, HTRF KinEASE-STK TR-FRET assay",
  "format": "biochemical",
  "conditions": "5 nM ASK1, 1 uM STK3 peptide substrate, 100 uM ATP, 3 hours",
  "experimental": "The ability (IC50) of compounds to inhibit ASK1 kinase activity was determined by HTRF® KinEASE™ Assay System.\nASK1 was purchased from Thermofisher (Catalogue #PV4011), ATP was purchased from Sigma (Catalogue #A7699), HTRF® KinEASE™ Assay System was obtained from Cisbio (Bedford, Mass.). ½ Area plate was purchased from Perkin Elmer (Catalogue ##6005560). HTRF® KinEASE™-STK is a generic method for measuring serine/threonine kinase activities using a time-resolved fluorescence resonance energy transfer (TR-FRET) immunoassay. The IC50 value for each compound was determined in the presence of compound (various concentration from 0 to 10 μM) and a fixed amount of ATP and peptide substrates. The test compound, 1 uM STK3 peptide substrate, and 5 nM of ASK1 kinase are incubated with kinase reaction buffer containing 50 mM HEPES pH 7.5, 0.01% BRIJ-35, 10 mM MgCl2, and 1 mM EGTA for 30 minutes. 100 uM ATP is added to start kinase reaction and incubated for 3 hours. The STK3-antibody labeled with Eu^3+-Cryptate and 125 nM streptavidin-XL665 are mixed in a single addition with stop reagents provided by the Cisbio kit used to stop the kinase reaction. Fluorescence is detected using an Envision Multilabeled 2014 reader from PerkinElmer. The Fluorescence is measured at 615 nm (Cryptate) and 665 nm (XL665) and a ratio of 665 nm/615 nm is calculated for each well. The resulting TR-FRET is proportional to the phosphorylation level. Staurosporine was used as the positive control. IC50 was determined by XLfit 5.3.\nBy using above method, the inhibition of ASK1 was tested for the compound of formula (I). IC50 ranges are as follows: A<1 nM; 1 nM B<10 nM; 10 nM<C<100 nM; 100 nM<D<1 μM; […].",
  "data": [
    {"compound": "Cc1cc(F)c(C(=O)Nc2cccc(-c3nnnn3C(C)C(=O)O)n2)cc1-n1cnc(C2CC2)c1", "note": "(centres unmarked) [Example 19a]", "values": [
      {"measurement": "IC50", "value": "100 to 1000", "unit": "nM"}
    ]},
    {"compound": "Cc1cc(F)c(C(=O)Nc2cccc(-n3nnnc3C(C)C)n2)cc1-n1cnc(C(F)(F)F)c1", "note": "[Example 2b]", "values": [
      {"measurement": "IC50", "value": "100 to 1000", "unit": "nM"}
    ]},
    {"compound": "Cc1cc(F)c(C(=O)Nc2ccnc(-c3nnn[nH]3)n2)cc1-n1cnc(C2CC2)c1", "note": "[Example 36a]", "values": [
      {"measurement": "IC50", "value": "> 1000", "unit": "nM"}
    ]},
    {"compound": "CC(=O)OC[C@@H](C)n1nnnc1-c1cccc(NC(=O)c2cc(-n3cnc(C4CC4)c3)c(C)cc2F)n1", "note": "[Example 6a, (R)-2-(5-(6-(5-(4-cyclopropyl-1H-imidazol-1-yl)-2-fluoro-4-methyl-benzamido)pyridin-2-yl)-1H-tetrazol-1-yl)propyl acetate]", "values": [
      {"measurement": "IC50", "value": "100 to 1000", "unit": "nM"}
    ]},
    {"compound": "Cc1cc(F)c(C(=O)Nc2cccc(-n3cnnc3C(C)C)n2)cc1-n1cnc(C2CC2)c1", "note": "[Example 1c, 5-(4-cyclopropyl-1H-imidazol-1-yl)-2-fluoro-N-(6-(3-isopropyl-4H-1,2,4-triazol-4-yl)pyridin-2-yl)-4-methylbenzamide]", "values": [
      {"measurement": "IC50", "value": "> 1000", "unit": "nM"}
    ]}
  ]
}
